Assay results: patent publication EP0341318A1, “NOVEL PLATINUM (II) COMPLEX, PROCESS FOR PREPARING THE SAME, AND THERAPEUTIC AGENT FOR MALIGNANT TUMOR” (TORAY INDUSTRIES, INC., priority 1987, dated 1989)
Values joined by “and” are separate entries in the source; they are usually repeats but may differ in a detail not shown here. Equal values may be shown once.

Key:
Slc:ICR mice = assay: Acute toxicity test on mice; type: in vivo; details: intraperitoneal injection, Slc:ICR mice (male, 5 weeks old), mortality on the 14th day
Experimental: Each test compound was intraperitoneally injected into Slc:ICR mice (male, 5 weeks old). Each compound was formulated into a solution or suspension in a 0.05% Tween 80 solution. The LD50 value was calculated from mortality found on the 14th day after said injection.

L1210 murine leukemia = assay: Antitumor activity against L1210 murine leukemia in mice; type: in vivo, CDF1 mice; details: for Survival days (mean±SD): administered on 1st, 5th and 9th days after tumor inoculation, CDF1 mice, 10^5 L1210 cells i.p.; for T/C (%) / Survival rate: days 1, 5, 9; for T/C (%): L1210 in CDF1 mice; for Survival rate: Number of 30 days survival mice / group
Experimental: L1210 murine leukemia cells which were subcultured in DBA/2 mouse were inoculated intraperitoneally into CDF1 mice at 10^5 cells/mouse. Each experimental group was composed of 6-10 mice (male, 6-weeks old). Each test compound was administered three times, i.e., on the lst, 5th and 9th days after tumor inoculation. CBDCA and CDDP were used as control drugs in this experiment. Each compound was dissolved or suspended in 0.05% Tween 80 solution and administered in mice. Antitumor activity against L1210 leukemia was determined by T/C value calculated by the following equation and by the number of 30 days survival mice. [formula]
The antitumor activities of the compounds Nos. 3 to 5 of this invention were determined in the same way as in Example 6.

| Molecule | LD50 (Slc:ICR mice) [mg/kg] | Survival days (mean±SD) (L1210 murine leukemia; Dose 1 mg/kg) [days] | T/C (%) (L1210 murine leukemia; Dose 1 mg/kg) | Survival days (mean±SD) (L1210 murine leukemia; Dose 10 mg/kg) [days] | T/C (%) (L1210 murine leukemia; Dose 10 mg/kg) | Survival days (mean±SD) (L1210 murine leukemia; Dose 25 mg/kg) [days] | T/C (%) (L1210 murine leukemia; Dose 25 mg/kg) | Survival days (mean±SD) (L1210 murine leukemia; Dose 50 mg/kg) [days] | T/C (%) (L1210 murine leukemia; Dose 50 mg/kg) | Survival days (mean±SD) (L1210 murine leukemia; Dose 100 mg/kg) [days] | T/C (%) (L1210 murine leukemia; Dose 100 mg/kg) | Survival days (mean±SD) (L1210 murine leukemia; Dose 200 mg/kg) [days] | T/C (%) (L1210 murine leukemia; Dose 200 mg/kg) | Survival rate (L1210 murine leukemia; dose 1 mg/kg) | Survival rate (L1210 murine leukemia; dose 10 mg/kg) | Survival rate (L1210 murine leukemia; dose 25 mg/kg) | Survival rate (L1210 murine leukemia; dose 50 mg/kg) | Survival rate (L1210 murine leukemia; dose 100 mg/kg) | Survival rate (L1210 murine leukemia; dose 200 mg/kg) | further results |
| --- | --- | --- | --- | --- | --- | --- | --- | --- | --- | --- | --- | --- | --- | --- | --- | --- | --- | --- | --- | --- |
| CC(C)(C)C(=O)C=C([O-])C(F)(F)C(F)(F)C(F)(F)F.N[C@@H]1CCCC[C@H]1N.[OH-].[Pt+2] [Compound No. 1, 2,2-Dimethyl-6,6,7,7,8,8,8-heptafluoro-3,5-octanedione-hydroxo(trans-I-1,2-diaminocyclohexane)platinum(II)] | 35 | 10.5 ± 1.2 | 130 | 29.5 ± 1.2 | 364 | 29.7 ± 0.5 | 367 | 24.0 ± 10.3 | 296 | 5.2 ± 1.9 | 64 | 1.7 ± 0.5 | 21 | 0/6 | 4/6 | 4/6 | 4/6 | 0/6 | 0/6 | T/C (%) (L1210 murine leukemia; Dose 10 mg/kg, listed as compound No. 1, 10 mg/kg): greater than 360%; T/C (%) (L1210 murine leukemia; Dose 25 mg/kg, listed as compound No. 1, 25 mg/kg): greater than 360%; antitumor activity (L1210 murine leukemia; comparison in words with control drugs, L1210 in mice): higher than CDDP and CBDCA |
| N[C@@H]1CCCC[C@H]1N.O=C(O)CC(=O)C=C([O-])C(F)(F)C(F)(F)C(F)(F)F.[OH-].[Pt+2] [Compound No. 3, 6,6,7,7,8,8,8-Heptafluoro-3,5-dioxooctanoic acid hydroxo-(trans-l-1,2-diaminocyclohexane)platinum(II)] | >200 | 9.7 ± 1.4 | 115 | 9.7 ± 1.4 | 115 | 11.0 ± 0.9 | 131 | 11.8 ± 0.8 | 140 | 14.0 ± 2.7 | 167 | 11.2 ± 3.7 | 133 | 0/6 | 0/6 | 0/6 | 0/6 | 0/6 | 0/6 |  |
| cis-diammine-1,1-cyclobutanedicarboxylate platinum(II) [CBDCA, reference compound] |  | 8.3 ± 0.5 | 98 | 9.3 ± 0.5 | 109 | 10.1 ± 1.3 | 119 | 13.1 ± 2.3 | 156 | 14.1 ± 3.7 | 166 | 9.6 ± 0.7 | 113 | 0/10 | 0/10 | 0/10 | 0/10 | 0/10 | 0/10 |  |
| N.N.[Cl][Pt][Cl] [CDDP, cis-diamminedichloroplatinum(II), reference compound] |  |  |  |  |  |  |  |  |  |  |  |  |  |  |  |  |  |  |  | Survival days (mean±SD) (L1210 murine leukemia; Dose 2.5 mg/kg, 2.5 mg/kg): 14.7 ± 2.7 days and 12.0 ± 3.0 days and 13.2 ± 2.9 days; T/C (%) (L1210 murine leukemia; Dose 2.5 mg/kg): 181% and 143% and 163%; Survival days (mean±SD) (L1210 murine leukemia; Dose 5.0 mg/kg, 5 mg/kg): 18.8 ± 4.3 days and 14.3 ± 2.9 days and 13.7 ± 1.5 days and 16.0 ± 2.8 days; T/C (%) (L1210 murine leukemia; Dose 5.0 mg/kg): 232% and 170% and 163% and 198%; Survival days (mean±SD) (L1210 murine leukemia; Dose 7.5 mg/kg, 7.5 mg/kg): 18.7 ± 3.1 days and 15.5 ± 2.1 days and 14.2 ± 2.4 days; T/C (%) (L1210 murine leukemia; Dose 7.5 mg/kg): 231% and 185% and 175%; Survival rate (L1210 murine leukemia; dose 2.5 mg/kg): 0/6; Survival rate (L1210 murine leukemia; dose 5.0 mg/kg): 0/6; Survival rate (L1210 murine leukemia; dose 7.5 mg/kg): 0/6 |
| 2-(2-(2-Methoxyethoxy)ethoxy)ethyl 2,2-dimethyl-6,6,7,7,8,8,8-heptafluoro-3,5-dioxooctanoate- hydroxo(trans-l-1,2-diamino-cyclohexane)platinum(II) [Compound No. 4] |  | 10.7 ± 2.7 | 127 | 20.8 ± 7.8 | 248 | 23.7 ± 5.9 | 282 | 11.5 ± 9.5 | 137 | 2.0 ± 0.0 | 24 | 2.0 ± 0.0 | 24 | 0/6 | 2/6 | 2/6 | 1/6 | 0/6 | 0/6 |  |
| 3-Heptafluorobutyryl-D-camphor-hydroxo(trans-l-1,2-diaminocyclohexane)platinum(II) [Compound No. 5] | 47 | 9.0 ± 0.6 | 111 | 14.7 ± 2.3 | 181 | 19.8 ± 6.1 | 244 | 15.3 ± 7.1 | 189 | 4.2 ± 1.0 | 52 | 2.0 ± 0.0 | 25 | 0/6 | 0/6 | 1/6 | 0/6 | 0/6 | 0/6 |  |
